Assay results: US9662404B2, “Compositions and methods for the delivery of molecules into live cells” (The Texas A&M University System, priority 2013, dated 2017)
Ends that are not written are not given here.

Legend:
[1] = tested on: neuronal cell line Neuro-2a and primary human dermal fibroblasts (HDF); assay: Cellular localization of dTAT in neuronal and primary cells; format: cell-based; details: 1 h incubation
Description: FIG. 11 illustrates the cellular localization of dTAT after 1 h incubation with neuronal cell line Neuro-2a (left panel) and primary human dermal fibroblasts (HDF) (right panel). Cells were incubated with dTAT, washed, and imaged with a 100× objective. […] FIG. 12 graphically illustrates the proliferation rate (absorbance in an MTT assay) of treated and untreated HeLa, Neuro-2a, and HDF cells.

[2] = tested on: HeLa, NIH 3T3, COLO 316 and HaCaT; details: 5 μM
Description: (§1) The TAT, dTAT and acTAT peptides were incubated for 1 h with several cell lines and internalization was assessed by fluorescence microscopy. […] See also FIG. 5. […] The cell lines HeLa, NIH 3T3, COLO 316 and HaCaT were incubated with 5 μM dTAT for 1 h, washed and imaged. […] After imaging, cells were incubated at 37° C. in a humidified atmosphere containing 5% CO2 for 24 h, washed and imaged again. […] Cell viability was assessed by exclusion of the cell-impermeable nuclear stain SYTOX® Blue at both 1 h and 24 h time point. […] Inverted monochrome (black=fluorescence signal, white-no signal) fluorescence images were made of HeLa cells incubated with 10 or 20 μM of TAT for 1 h.
Live cells from different lines (HeLa, HaCat, NIH 3T3) were grown in Dulbecco's […] (DMEM) (Fisher) supplemented with 10% fetal bovine serum (FBS) (Fisher) and kept at 37° C. in a humidified atmosphere containing 5% CO2. […] Images were acquired using bright field imaging and three standard fluorescence filter sets: CFP (Ex=436±10 nm/Em=480±20 nm), RFP (Ex=560±20 nm/Em=630±35 nm), and FITC (Ex=488±10 nm/Em=520±20 nm). The fluorescence intensities of different cells were measured with the SlideBook 4.2 software (Olympus, Center Valley, Pa.) and the average fluorescence intensity was determined for each condition. […]

[3] = tested on: HeLa cells; assay: Delivery of peptides inside live cells, internalization assessed by fluorescence microscopy; format: cell-based; details: for cellular localization of peptide fluorescence: 1 h incubation
Description: as §1
Live cells from different lines (HeLa, HaCat, NIH 3T3) were grown in Dulbecco's […] (DMEM) (Fisher) supplemented with 10% fetal bovine serum (FBS) (Fisher) and kept at 37° C. in a humidified atmosphere containing 5% CO2. Cells were then seeded in 8-well dishes so that the cells were 80%-90% confluent after 48 h. […] The media (nrL-15) used for incubation lacks cysteine to avoid reduction of the disulfide bond of dTAT. Cells were then incubated with different concentrations of the acTAT, TAT, or dTAT at 37° C. for 1 h. […] Images were collected using a Rolera-MGI Plus back-illuminated EMCCD camera (Qimaging, Surrey, BC, Canada). Images were acquired using bright field imaging and three standard fluorescence filter sets: CFP (Ex=436±10 nm/Em=480±20 nm), RFP (Ex=560±20 nm/Em=630±35 nm), and FITC (Ex=488±10 nm/Em=520±20 nm). The fluorescence intensities of different cells were measured with the SlideBook 4.2 software (Olympus, Center Valley, Pa.) and the average fluorescence intensity was determined for each condition. It has been previously reported that CPPs labeled with fluorophores such as TMR can photosensitize membranes and cause endosomal leakage upon light irradiation. See, Srinivasan, D. et al., “Conjugation to the cell-penetrating peptide TAT potentiates the photodynamic effect of carboxytetramethylrhodamine,” PloS one 6:e17732 (2011) and Muthukrishnan, N., et al., “Synergy Between Cell-Penetrating Peptides and Singlet Oxygen Generators Leads to Efficient Photolysis of Membranes,” Photochemistry and Photobiology 89:625-630 (2012), each incorporated herein by reference in its entirety. […] First, all delivery experiments were performed under conditions of minimal light irradiation (dark room with dim red light). When fluorescence imaging is required, probes (e.g., SNAP surface 488, EGFP) are imaged before dTAT is, thereby minimizing the possible effect of light on endosomal release. For experiments performed with Cre and Hoxb4, cells are not imaged and not exposed to light (not at all for Hoxb4, 12 h after incubation for Cre).

[4] = tested on: HeLa cells; assay: dTAT-induced cytosolic release of DEAC-K9 trapped inside endosomes; format: cell-based; details: 5 μM DEAC-K9 1 h, wash, 5 μM dTAT 1 h
Description: FIGS. 8A-8C illustrate that dTAT mediates endosomal escape. (FIG. 8A) Effect of endocytic inhibitors on the cellular distribution of dTAT. HeLa cells were pre-treated with 50 μM amiloride or 200 nM bafilomycin for 30 and 20 min respectively, washed, and incubated with 5 μM dTAT and inhibitor. […] Scale bar, 10 μm. […] A schematic illustration of the experimental steps is shown (top). First, cells were incubated with 5 μM DEAC-K9 for 1 h and washed. Inverted monochrome images show a fluorescence punctuate distribution after incubation with DEAC-K9 alone. The same cells were then incubated with 5 μM dTAT for 1 h. Images show a redistribution of DEAC-K9 to the cytosol and nucleus (inhibited by bafilomycin). Scale bars, 10 μm. (FIG. 8C) The endosomolytic activity of dTAT is highly efficient. HeLa cells expressing SNAPH2B were incubated with 5 μM dTAT and 5 μM SNAP-Surface® 488. Fluorescence images show accumulation of SNAP-Surface® 488 in the nucleus. […] Small panels show cytosolic and nuclear fluorescence of TMR. Scale bars, 10 μm.
To test whether endosomal escape is involved in delivery of dTAT, the effects of amiloride, a macropinocytosis inhibitor, and bafilomycin, an inhibitor of endosomal acidification, were assessed. […] Cells were then washed and incubated with dTAT (FIG. 8B). […] This redistribution was however inhibited by bafilomycin.

## (CK(TMR)TAT)2 (CK(TMR)RKKRRQRRRG; also: dimer) [dTAT, dimer of two CK(TMR)-TAT monomers linked via a disulfide bond between the N-terminal cysteine residues]
[1]
  cellular localization of fluorescence: cytosolic release
[2]; 1 h
  cellular localization of fluorescence signal: in the cytosol and nucleus of cells
[2]; 1 h incubation, 1 h and 24 h time points
  plasma membrane integrity, SYTOX Blue staining: not stained with SYTOX® Blue
[3]; 5 μM
  cells in which cytosolic delivery is observed: more than 95%
[3]; HeLa cells, dTAT 1-5 μM
  concentration range with dramatic increase in cytosolic delivery of the peptide: 2 to 5 µM
[3]; above 5 μM
  cellular localization of peptide fluorescence: distributed in the cytosol and nucleus
[3]; below 2 μM
  cellular localization of peptide fluorescence: punctate
[4]
  distribution of DEAC-K9 fluorescence after subsequent addition of dTAT: redistribution of the DEAC signal throughout the cytosol and nucleus
